The values below come from article PMC8467962, “Design and Synthesis of Water-Soluble and Potent MMP-13 Inhibitors with Activity in Human Osteosarcoma Cells” (International Journal of Molecular Sciences, 2021).

What is called IC50 is the point on the concentration scale where inhibition reaches its midpoint. For orientation: solubility means the dissolved amount per volume that the medium holds.

The target in one series is T1, MMP-3 (Homo sapiens, UniProt P08254).
T1 construct: the catalytic domains of the corresponding MMP were incubated in triplicate; purchased Enzo Life Science International, Inc
T1 sequence (P08254 100-272 limits assumed): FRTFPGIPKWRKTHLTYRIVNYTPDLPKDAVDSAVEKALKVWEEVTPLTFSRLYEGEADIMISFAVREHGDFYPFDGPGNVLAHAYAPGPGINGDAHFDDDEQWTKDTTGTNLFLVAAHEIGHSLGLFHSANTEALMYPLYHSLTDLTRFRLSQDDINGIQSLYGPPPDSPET
Description: MMP inhibition assay (MMP Inhibitor Profiling Kit, thiopeptide substrate), MMP-3. It counts as biochemical. The settings on record: panel of MMPs. On the procedure: (§1) MMP activity measurements were performed using an MMP Inhibitor Profiling Kit purchased from Enzo Life Science International, Inc. (Farmingdale, NY, USA), and following the manufacturer’s protocol with slight modifications. Proteolytic activity was measured using a thiopeptide substrate (Ac-PLG-[2-mercapto-4-methylpentanoyl]-LG-OC2H5) where the MMP cleavage site peptide bond has been replaced by a thioester bond. Hydrolysis of this bond by MMPs produces a sulfhydryl group that reacts with DTNB to form 2-nitro-5-thiobenzoic acid, which was detected by its absorbance at 414 nm (microplate photometer 90 Thermo Scientific Multiscan FC).
(§2) Enzyme reactions were carried out at 37 °C in a 100 μL final volume of solutions, where the catalytic domains of the corresponding MMP were incubated in triplicate with at least seven concentrations of inhibitors. The assay buffer contained the following components: 50 mM HEPES, 10 mM CaCl2 95, 0.05% Brij-35, and 1 mM DTNB at pH 7.5. After addition of the substrate, the increase of absorbance was recorded in 1 min time intervals for 30 min. Data were plotted as OD versus time for each sample to obtain the reaction velocity (V) in OD per min. The percentage of residual activity for each compound was calculated using the following formula: % of remaining activity = (V in the presence of inhibitor/Vcontrol) × 100. […]

Another series addresses T2, MMP-10 (Homo sapiens, UniProt P09238).
T2 construct: the catalytic domains of the corresponding MMP were incubated in triplicate; purchased Enzo Life Science International, Inc
Description: MMP inhibition assay (MMP Inhibitor Profiling Kit, thiopeptide substrate), MMP-10. It counts as biochemical. The settings on record: panel of MMPs. The protocol:
as §1, §2

The next series has as its target T3, MMP-8 (Homo sapiens, UniProt P22894).
T3 construct: the catalytic domains of the corresponding MMP were incubated in triplicate; purchased Enzo Life Science International, Inc
Description: MMP inhibition assay (MMP Inhibitor Profiling Kit, thiopeptide substrate), MMP-8. It counts as biochemical. The settings on record: panel of MMPs. On the procedure: as §1, §2

A further series has as its target T4, MMP-7 (Homo sapiens, UniProt P09237).
T4 construct: the catalytic domains of the corresponding MMP were incubated in triplicate; purchased Enzo Life Science International, Inc
T4 sequence (P09237 95-267): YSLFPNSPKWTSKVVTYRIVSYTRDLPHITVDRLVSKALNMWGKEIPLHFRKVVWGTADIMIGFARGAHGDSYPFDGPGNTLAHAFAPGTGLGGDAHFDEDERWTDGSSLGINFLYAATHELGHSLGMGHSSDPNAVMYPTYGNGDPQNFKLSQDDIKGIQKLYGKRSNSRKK
Description: MMP inhibition assay (MMP Inhibitor Profiling Kit, thiopeptide substrate), MMP-7. It counts as biochemical. Particulars: panel of MMPs. On the procedure:
as §1, §2

The next series concerns the target T5, MMP-14 (Homo sapiens, UniProt P50281).
T5 construct: the catalytic domains of the corresponding MMP were incubated in triplicate; purchased Enzo Life Science International, Inc
Briefly: MMP inhibition assay (MMP Inhibitor Profiling Kit, thiopeptide substrate), MMP-14. It counts as biochemical. The settings on record: panel of MMPs. On the procedure:
as §1, §2

A short description of series [1]: Thermodynamic solubility (shake flask method). It counts as physicochemical. Particulars: phosphate buffer, aqueous buffer, thermodynamic from solid; PBS pH 7.4, shake flask, room temperature; read-out: Experimental Water Solubility LogS (converted). The protocol: The samples were sonicated for 10 min and shaken overnight at 800 rpm (FB15013 TopMix, Fischer Scientific, Waltham, MA, USA) at room temperature. A first phase separation of supernatant and undissolved solid was performed by centrifugation at 5000 rpm for 20 min (Biofuge primo R). The supernatant was then transferred into Eppendorf tubes for a second centrifugation. An adequate dilution was made using the particle-free supernatant and the concentration quantified by LC-HRMS using a 4-point calibration curve (Agilent 1260 Infinity II).
PART A. Calibration curves of compounds for solubility
9e, 10a-e), 4-points calibration curves were made for each compound. Calibrations curves were obtained using four different concentrations of the corresponding compound (0.1 mg/mL, 0.01 mg/mL, 0.001 mg/mL and 0.0001 mg/mL). All samples were prepared in DMSO and measured in a LC-HRMS (Agilent 1260 Infinity II).
Figure S1. Calibration curves of all active compounds (solubility studies) (1, 2, 9a, 9e, 10a-e) […]

Another series concerns the target T6, MMP-1 (Homo sapiens, UniProt P03956).
T6 construct: the catalytic domains of the corresponding MMP were incubated in triplicate; purchased Enzo Life Science International, Inc
T6 sequence (P03956 100-269 limits assumed): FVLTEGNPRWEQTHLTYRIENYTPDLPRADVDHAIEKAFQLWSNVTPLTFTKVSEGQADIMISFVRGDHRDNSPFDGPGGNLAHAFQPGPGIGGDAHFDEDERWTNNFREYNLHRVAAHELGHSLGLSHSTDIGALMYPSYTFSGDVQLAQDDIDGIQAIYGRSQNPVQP
Briefly: MMP inhibition assay (MMP Inhibitor Profiling Kit, thiopeptide substrate), MMP-1. It counts as biochemical. Particulars: panel of MMPs. The protocol:
as §1, §2

Series [2] has as its target T7, MMP-2 (Homo sapiens, UniProt P08253).
T7 construct: the catalytic domains of the corresponding MMP were incubated in triplicate; purchased Enzo Life Science International, Inc
Briefly: MMP inhibition assay (MMP Inhibitor Profiling Kit, thiopeptide substrate), MMP-2. It counts as biochemical. The settings on record: catalytic domain, 37 °C, pH 7.5. The protocol: as §1
Enzyme reactions were carried out at 37 °C in a 100 μL final volume of solutions, where the catalytic domains of the corresponding MMP were incubated in triplicate with at least seven concentrations of inhibitors. The assay buffer contained the following components: 50 mM HEPES, 10 mM CaCl2 95, 0.05% Brij-35, and 1 mM DTNB at pH 7.5. After addition of the substrate, the increase of absorbance was recorded in 1 min time intervals for 30 min. Data were plotted as OD versus time for each sample to obtain the reaction velocity (V) in OD per min. The percentage of residual activity for each compound was calculated using the following formula: % of remaining activity = (V in the presence of inhibitor/Vcontrol) × 100. An inhibitor, NNGH, was included as a prototypic control inhibitor. IC50 calculations in MMP-13 and MMP-2 for active compounds are shown in Supplementary Materials (Figure S9)
The concentration of the compound that provided 50% inhibition of enzymatic activity (IC50) was determined by using semi-logarithmic dose–response plots (Graph Pad Prism 5.0 for Windows, Graph Pad Software Inc., San Diego, CA, USA, 2007).

For a further series, the target named is T8, MMP-12 (Homo sapiens, UniProt P39900).
T8 construct: the catalytic domains of the corresponding MMP were incubated in triplicate; purchased Enzo Life Science International, Inc
T8 sequence (P39900 106-263 limits assumed): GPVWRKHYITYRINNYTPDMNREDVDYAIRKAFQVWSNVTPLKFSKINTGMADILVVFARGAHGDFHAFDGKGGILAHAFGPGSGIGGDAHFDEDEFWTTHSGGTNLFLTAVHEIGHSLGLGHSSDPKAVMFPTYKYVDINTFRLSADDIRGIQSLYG
Description: MMP inhibition assay (MMP Inhibitor Profiling Kit, thiopeptide substrate), MMP-12. It counts as biochemical. Particulars: panel of MMPs. The protocol:
as §1, §2

The target in another series is T9, MMP-9 (Homo sapiens, UniProt P14780).
T9 construct: the catalytic domains of the corresponding MMP were incubated in triplicate; purchased Enzo Life Science International, Inc
T9 sequence (P14780 107-444 limits assumed): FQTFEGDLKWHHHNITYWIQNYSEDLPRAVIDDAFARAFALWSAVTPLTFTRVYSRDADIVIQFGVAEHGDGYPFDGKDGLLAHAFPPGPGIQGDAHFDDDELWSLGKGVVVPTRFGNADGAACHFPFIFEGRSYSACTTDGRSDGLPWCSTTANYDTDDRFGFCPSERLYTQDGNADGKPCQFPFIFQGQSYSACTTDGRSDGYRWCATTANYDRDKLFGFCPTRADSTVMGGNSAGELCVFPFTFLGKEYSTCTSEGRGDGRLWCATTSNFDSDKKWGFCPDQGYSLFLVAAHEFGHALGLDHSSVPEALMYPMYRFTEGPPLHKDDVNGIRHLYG
Briefly: MMP inhibition assay (MMP Inhibitor Profiling Kit, thiopeptide substrate), MMP-9. It counts as biochemical. The settings on record: panel of MMPs. The protocol: as §1, §2

Series [3] concerns the target T7, MMP-2. Details: method as in PMID 30629065. Particulars: previous work; read-out: MMP-2 IC50; cited from earlier work.

Molecules are shown by their SMILES. ≈ marks a conversion by molar mass, not a printed value. Read-outs that look alike come from different tables or passages of the source.

T7 sequence (P08253 110-446 limits assumed): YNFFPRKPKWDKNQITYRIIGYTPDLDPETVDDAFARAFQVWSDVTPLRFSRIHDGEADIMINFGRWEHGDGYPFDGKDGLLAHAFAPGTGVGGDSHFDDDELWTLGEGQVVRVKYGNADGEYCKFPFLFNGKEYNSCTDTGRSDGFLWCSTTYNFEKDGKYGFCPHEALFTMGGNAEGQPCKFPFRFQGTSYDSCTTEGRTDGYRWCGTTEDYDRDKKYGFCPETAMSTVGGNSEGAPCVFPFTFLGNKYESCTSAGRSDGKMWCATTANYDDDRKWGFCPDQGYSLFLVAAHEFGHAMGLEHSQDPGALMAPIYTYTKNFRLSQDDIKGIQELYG
T2 sequence (P09238 99-263 limits assumed): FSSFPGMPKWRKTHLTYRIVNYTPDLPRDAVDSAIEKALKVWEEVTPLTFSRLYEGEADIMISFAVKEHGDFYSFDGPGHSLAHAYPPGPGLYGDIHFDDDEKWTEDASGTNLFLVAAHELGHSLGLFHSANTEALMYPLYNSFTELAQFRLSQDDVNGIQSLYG
T3 sequence (P22894 100-262 limits assumed): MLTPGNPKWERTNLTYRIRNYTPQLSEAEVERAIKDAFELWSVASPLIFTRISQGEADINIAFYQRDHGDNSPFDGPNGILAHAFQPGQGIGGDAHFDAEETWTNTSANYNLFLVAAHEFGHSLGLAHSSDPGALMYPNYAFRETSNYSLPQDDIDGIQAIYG

On to `O=C(NO)[C@@H](Cc1ccccc1)NS(=O)(=O)c1ccc(-n2cc(CCn3nc4ccccc4n3)nn2)cc1` [Compound 9a], for which the IC50 at MMP-3 is 0.031 ± 0.008 µM; at MMP-10, 0.28 ± 0.022 µM; on MMP-8 it was 0.1 ± 0.019 µM; against MMP-7, 0.047 ± 0.021 µM; on MMP-14 it was over 1 µM; against MMP-1, over 1 µM. Besides, the half-maximal inhibitory concentration (IC50) came to 0.00342 ± 0.00115 µM against MMP-2 [2], 0.0037 ± 0.002 µM against MMP-12 and 0.5 ± 0.074 µM against MMP-9. Moreover, the solubility in [1] was 9.77 µM (≈ 5.2 µg/mL).

Turning to `O=C(NO)C1(S(=O)(=O)c2ccc(-n3cc(CCn4nc5c(Br)c(Br)c(Br)c(Br)c5n4)nn3)cc2)CCOCC1` [Compound 2], the IC50 on MMP-2 [3] is 0.1 µM. For the same molecule, in [1], the solubility is 2.4 µM (≈ 1.95 µg/mL).
